ChEMBL document CHEMBL1201862, “PubChem BioAssay data set” (2004)
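Assay format: 96-well plates, 48-hour exposure. GI50: concentration for 50% inhibition of growth.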 Activity calls are given as the source filed them. No stated cut-off is given here; in the data, active = GI50 up to about 1.1 µM and inactive = higher.

How the values were obtained:
Assay in all cases: growth of human tumour cells (NCI), 48 h
[1] = system: TK-10
[2] = system: NCI-H23
[3] = system: IGROV-1
[4] = system: U-251
[5] = system: SNB-75
[6] = system: COLO 205
[7] = system: SF-268
[8] = system: M19-MEL
[9] = system: SF-295
[10] = system: HOP-92
[11] = system: A549
[12] = system: HCC 2998
[13] = system: OVCAR-8
[14] = system: HOP-62
[15] = system: A498
[16] = system: NCI-H522
[17] = system: CCRF-CEM
[18] = system: BT-549
[19] = system: LOX IMVI
[20] = system: SR

Row | SMILES | GI50 [1] | GI50 [2] | GI50 [3] | GI50 [4] | GI50 [5] | GI50 [6] | GI50 [7] | GI50 [8] | GI50 [9] | GI50 [10] | GI50 [11] | GI50 [12] | GI50 [13] | GI50 [14] | GI50 [15] | GI50 [16] | GI50 [17] | GI50 [18] | GI50 [19] | GI50 [20]
1 | ClCCCCOC1CCCCO1 (stereo unspecified) | > 100 µM (inactive) | > 100 µM (inactive) | > 100 µM (inactive) | > 100 µM (inactive) | > 100 µM (inactive) | > 100 µM (inactive) | > 100 µM (inactive) | > 100 µM (inactive) | > 100 µM (inactive) | > 100 µM (inactive) | > 100 µM (inactive) | > 100 µM (inactive) | > 100 µM (inactive) | > 100 µM (inactive) | > 100 µM (inactive) | > 100 µM (inactive) |  |  |  | 
2 | O=C(c1ccccc1)c1c(-c2ccccc2)sc2nc3ccccc3nc12 | > 100 µM (inactive) | > 100 µM (inactive) | > 100 µM (inactive) | > 100 µM (inactive) | 32.8 µM (inactive) | > 100 µM (inactive) | > 100 µM (inactive) | > 100 µM (inactive) | 52.7 µM (inactive) | 16.4 µM (inactive) | > 100 µM (inactive) | > 100 µM (inactive) | > 100 µM (inactive) | 34.8 µM (inactive) | > 100 µM (inactive) | > 100 µM (inactive) | > 100 µM (inactive) |  |  | 
3 | NC(=S)N/N=C/c1ncccc1N [TRIAPINE] | > 10 µM (inactive) | 0.332 µM (active) | > 10 µM (inactive) | 1.04 µM (active) | 0.773 µM (active) | 2.23 µM (inactive) | 0.925 µM (active) |  | 1.21 µM (inactive) | 0.553 µM (active) | 2.02 µM (inactive) | 1.62 µM (inactive) | 0.568 µM (active) | 1.19 µM (inactive) | 0.615 µM (active) | 2.03 µM (inactive) | 0.466 µM (active) | 2.37 µM (inactive) | 0.679 µM (active) | 0.403 µM (active)
4 | O=c1cc2ccccc2nn1-c1ccccc1Cl | > 100 µM (inactive) | 67.9 µM (inactive) | > 100 µM (inactive) | > 100 µM (inactive) | 59.6 µM (inactive) | > 100 µM (inactive) | 85.7 µM (inactive) | > 100 µM (inactive) | > 100 µM (inactive) | > 100 µM (inactive) | > 100 µM (inactive) | > 100 µM (inactive) | > 100 µM (inactive) | > 100 µM (inactive) | > 100 µM (inactive) |  | 86.3 µM (inactive) |  | > 100 µM (inactive) | 
5 | COc1cc(/C=C2\C[C@H]3[C@@H]4CC=C5C[C@@H](N6CCCC6)CC[C@]5(C)[C@H]4CC[C@]3(C)[C@H]2O)cc(OC)c1OC | 20.3 µM (inactive) | 14.9 µM (inactive) | 15.9 µM (inactive) | 15.4 µM (inactive) | 12.1 µM (inactive) | 14.8 µM (inactive) | 3.28 µM (inactive) |  | 13 µM (inactive) | 12.5 µM (inactive) | 10.6 µM (inactive) | 7.83 µM (inactive) | 11 µM (inactive) | 16.1 µM (inactive) | 16.6 µM (inactive) | 13.4 µM (inactive) | 3.72 µM (inactive) | 16.1 µM (inactive) | 8.57 µM (inactive) | 2.63 µM (inactive)
6 | COC1(CC[C@@H](C)COC2OC(CO)C(O)C(O)C2O)O[C@H]2C[C@H]3[C@@H]4CC=C5C[C@@H](OC6OC(CO)C(O)C(OC7OC(CO)C(O)C(O)C7O)C6OC6OC(C)C(O)C(O)C6O)CC[C@]5(C)[C@H]4CC[C@]3(C)[C@H]2[C@@H]1C (stereo partly specified) | 19.3 µM (inactive) | 14.5 µM (inactive) | 7.24 µM (inactive) | 1.89 µM (inactive) | 3.33 µM (inactive) | 9.04 µM (inactive) | 10.2 µM (inactive) |  | 3.48 µM (inactive) | 2.46 µM (inactive) | 2.68 µM (inactive) | 3.56 µM (inactive) | 8.77 µM (inactive) | 10.4 µM (inactive) | 12.9 µM (inactive) | 4.62 µM (inactive) | 28.6 µM (inactive) | 16.5 µM (inactive) | 2.8 µM (inactive) | 23.5 µM (inactive)
7 | CN1CN(c2ccccc2)C2(CCNCC2)C1=O | > 100 µM (inactive) | > 100 µM (inactive) | > 100 µM (inactive) | > 100 µM (inactive) | > 100 µM (inactive) | > 100 µM (inactive) | > 100 µM (inactive) |  | > 100 µM (inactive) | > 100 µM (inactive) | > 100 µM (inactive) | > 100 µM (inactive) | > 100 µM (inactive) | > 100 µM (inactive) | > 100 µM (inactive) | > 100 µM (inactive) | > 100 µM (inactive) | > 100 µM (inactive) | > 100 µM (inactive) | > 100 µM (inactive)
